Test results published in ChEMBL document CHEMBL4414598, “Trifluorinated Pyrimidine-Based A2B Antagonists: Optimization and Evidence of Stereospecific Recognition” (J Med Chem, 2019).

Legend:
[1] = biological target: Adenosine receptor A2a (Homo sapiens, UniProt P29274); assay: Displacement of [3H]ZM241385 from human recombinant A2A receptor expressed in human HeLa cell membranes at 1 uM incubated for 30 mins by radioligand binding competition assay relative to control
[2] = biological target: T1, Adenosine receptor A1 (Homo sapiens) (UniProt P30542); assay: Displacement of [3H]DPCPX from human recombinant A1 receptor expressed in CHOA1 cell membranes at 1 uM incubated for 60 mins by radioligand binding competition assay relative to control
T1 sequence (whole entry): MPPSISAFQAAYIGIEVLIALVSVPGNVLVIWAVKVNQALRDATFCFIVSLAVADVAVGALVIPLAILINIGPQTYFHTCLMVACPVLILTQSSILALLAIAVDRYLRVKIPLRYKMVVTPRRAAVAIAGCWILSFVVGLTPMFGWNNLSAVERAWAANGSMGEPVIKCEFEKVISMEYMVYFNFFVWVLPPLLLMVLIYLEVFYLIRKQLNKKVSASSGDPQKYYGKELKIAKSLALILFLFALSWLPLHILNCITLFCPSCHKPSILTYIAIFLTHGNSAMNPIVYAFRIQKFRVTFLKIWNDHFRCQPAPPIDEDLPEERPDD

[3] = biological target: T2, Adenosine receptor A3 (Homo sapiens) (UniProt P0DMS8); assay: Displacement of [3H]NECA from human A3 receptor expressed in human HeLa cell membranes at 1 uM incubated for 180 mins by radioligand binding competition assay relative to control
T2 sequence (whole entry): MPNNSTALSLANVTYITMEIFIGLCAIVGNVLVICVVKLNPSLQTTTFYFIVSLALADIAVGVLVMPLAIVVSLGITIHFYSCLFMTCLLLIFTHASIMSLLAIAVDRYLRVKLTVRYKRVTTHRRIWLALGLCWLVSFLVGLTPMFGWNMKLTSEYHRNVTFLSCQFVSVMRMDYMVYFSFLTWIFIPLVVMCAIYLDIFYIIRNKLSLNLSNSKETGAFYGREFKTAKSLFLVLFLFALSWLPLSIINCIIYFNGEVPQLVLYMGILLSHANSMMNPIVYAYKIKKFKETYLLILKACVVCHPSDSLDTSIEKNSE

[4] = biological target: T3, Adenosine receptor A2b (Homo sapiens) (UniProt P29275); assay: Displacement of [3H]DPCPX from human recombinant A2B receptor expressed in human HEK293 cell membranes at 1 uM incubated for 30 mins by radioligand binding competition assay relative to control
T3 sequence (whole entry): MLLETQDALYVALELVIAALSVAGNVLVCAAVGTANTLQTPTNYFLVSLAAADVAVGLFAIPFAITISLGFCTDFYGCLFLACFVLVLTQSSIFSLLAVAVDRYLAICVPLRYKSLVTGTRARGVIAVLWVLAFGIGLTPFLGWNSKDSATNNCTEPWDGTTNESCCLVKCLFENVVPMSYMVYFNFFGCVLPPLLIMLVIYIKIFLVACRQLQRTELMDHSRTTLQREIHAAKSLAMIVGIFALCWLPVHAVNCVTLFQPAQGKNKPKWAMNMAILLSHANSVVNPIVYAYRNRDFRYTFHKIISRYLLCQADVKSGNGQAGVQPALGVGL

Adenosine receptor A2a, sequence (P29274 whole entry): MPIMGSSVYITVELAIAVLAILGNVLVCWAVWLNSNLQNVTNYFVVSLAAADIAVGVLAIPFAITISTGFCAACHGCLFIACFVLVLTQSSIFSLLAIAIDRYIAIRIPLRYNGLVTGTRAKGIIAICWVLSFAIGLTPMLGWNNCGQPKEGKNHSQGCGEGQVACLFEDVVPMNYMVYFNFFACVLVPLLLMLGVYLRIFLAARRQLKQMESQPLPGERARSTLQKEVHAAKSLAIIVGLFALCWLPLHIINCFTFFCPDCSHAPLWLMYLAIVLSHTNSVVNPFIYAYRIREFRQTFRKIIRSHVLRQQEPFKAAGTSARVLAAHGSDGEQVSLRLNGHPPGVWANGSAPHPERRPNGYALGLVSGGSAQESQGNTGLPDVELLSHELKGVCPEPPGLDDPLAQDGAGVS

SMILES | inhibition [1] | inhibition [2] | inhibition [3] | inhibition [4]
CC1=C(C(=O)OC(C)C)C(c2ccsc2)n2c(nc3ccccc32)N1 (centres undefined) | 3% | 11% | 21% | –
CC1=C(C(=O)OC(C(F)(F)F)C(F)(F)F)C(c2cccs2)NC(=O)N1 (racemic) | 1% | 9% | 1% | 1%
CC1=C(C(=O)OC(C)C(F)(F)F)C(c2cccs2)NC(=O)N1 (stereo in doubt; 14k-D1) | 2% | 12% | 3% | 4%
CC1=C(C(=O)OCC(F)(F)F)C(c2cccs2)n2c(nc3ccccc32)N1 (racemic) | 7% | 1% | 2% | 6%
CC1=C(C(=O)OC(C(F)(F)F)C(F)(F)F)C(c2ccoc2)n2c(nc3ccccc32)N1 (racemic) | 10% | 24% | 6% | 21%
CCOC(=O)C1=C(C(F)(F)F)Nc2nc3ccccc3n2C1c1cccs1 (racemic) | 4% | 7% | 19% | 38%
CCOC(=O)C1=C(C(F)(F)F)NC(=O)NC1c1cccs1 (racemic) | 20% | 28% | 1% | 16%
CCOC(=O)C1=C(C)Nc2nc3ccccc3n2C1c1ccsc1 (centres undefined) | 10% | 3% | 2% | –
CCOC(=O)C1=C(C)Nc2nc3ccccc3n2C1c1cccs1 (centres undefined) | 16% | 8% | 1% | –
CC1=C(C(=O)OC(C)C)C(c2ccoc2)n2c(nc3ccccc32)N1 (centres undefined) | 23% | 12% | 2% | –
CC1=C(C(=O)OC(C)C)C(c2cccs2)n2c(nc3ccccc32)N1 (centres undefined) | 17% | 1% | 3% | –
CC1=C(C(=O)OC(C)C(F)(F)F)C(c2ccsc2)NC(=O)N1 (stereo in doubt; 14l-D1) | 2% | 3% | 2% | –
CC1=C(C(=O)OCC(F)(F)F)[C@H](c2ccco2)n2c(nc3ccccc32)N1 | 3% | 12% | 8% | –
CCOC(=O)C1=C(C)Nc2nc3ccccc3n2C1c1ccco1 (centres undefined) | 14% | 5% | 1% | –
CC1=C(C(=O)OC(C)C(F)(F)F)C(c2ccoc2)NC(=O)N1 (stereo in doubt; 14j-D1) | 1% | 10% | 12% | –

Second part, the compound after the results:

inhibition [1] | inhibition [2] | inhibition [3] | inhibition [4] | SMILES
1% | 4% | 1% | 17% | CC(C)OC(=O)C1=C(C(F)(F)F)Nc2nc3ccccc3n2C1c1cccs1 (racemic)
21% | 27% | 1% | 37% | CC(C)OC(=O)C1=C(C(F)(F)F)NC(=O)NC1c1ccoc1 (racemic)
10% | 11% | 19% | 7% | CC1=C(C(=O)OC(C(F)(F)F)C(F)(F)F)C(c2cccs2)n2c(nc3ccccc32)N1 (racemic)
17% | 10% | 3% | – | CCOC(=O)C1=C(C(F)(F)F)Nc2nc3ccccc3n2[C@H]1c1ccoc1
24% | 2% | 2% | 47% | CC1=C(C(=O)OC(C)C(F)(F)F)C(c2ccsc2)n2c(nc3ccccc32)N1 (racemic)
1% | 1% | 7% | – | CC1=C(C(=O)OC(C)C(F)(F)F)C(c2ccco2)NC(=O)N1 (stereo in doubt; 14i-D2)
11% | 7% | 1% | – | CCOC(=O)C1=C(C)Nc2nc3ccccc3n2C1c1ccoc1 (centres undefined)
3% | 1% | 11% | – | CC1=C(C(=O)OC(C)C(F)(F)F)C(c2ccco2)NC(=O)N1 (stereo in doubt; 14i-D1)
